# Reference: patent US20230008368A1, “IMIDAZOQUINOLINE SUBSTITUTED PHOSPHORIC ESTER AGONIST, AND PREPARATION THEREFOR AND APPLICATION THEREOF” (SUZHOU ZELGEN BIOPHARMACEUTICALS CO., LTD., priority 2019, published 2023)
# Experiments:
# [1] = cytotoxicity, cell viability by CellTiter-Glo; format: cell-based, human; settings: human, HEK-Blue hTLR cells, cultured 1 day
# Procedure: (§1) The compound was diluted with 1:3 series with DMSO for 9 concentration points, duplicated wells, and added to 96-well plate with Echo.
# (§2) The HEK-Blue™ hTLR cells were suspended in the culture medium and then seeded into a 96-well plate containing the compound at a density of 50,000 cells/well. Cells were cultured at 5% CO2 and 37° C. for 1 day. The final concentration of DMSO in the cell culture medium was 0.5%.
# According to the CellTiter-Glo instructions, the cell viability was measured, and the Luminescence signal value was read by the microplate reader, which was used to calculate the cytotoxicity of the compound.
# (§3) The EC50 and CC50 values of the compound were calculated by GraphPad Prism software, and the fitting curve was plotted.
# hTLR8 = molecular target: T1, hTLR8 (Homo sapiens, UniProt Q9NR97); test: agonistic activity on hTLR8, HEK-Blue hTLR cells, SEAP reporter (QUANTI-Blue); format: cell-based; settings: HEK-Blue hTLR cells, SEAP reporter, OD650, cultured 1 day; read-out: TLR 8 EC50
# T1 construct: expressed in transfected cells; host or cells: HEK-Blue hTLR cells
# T1 sequence (Q9NR97 27-1041): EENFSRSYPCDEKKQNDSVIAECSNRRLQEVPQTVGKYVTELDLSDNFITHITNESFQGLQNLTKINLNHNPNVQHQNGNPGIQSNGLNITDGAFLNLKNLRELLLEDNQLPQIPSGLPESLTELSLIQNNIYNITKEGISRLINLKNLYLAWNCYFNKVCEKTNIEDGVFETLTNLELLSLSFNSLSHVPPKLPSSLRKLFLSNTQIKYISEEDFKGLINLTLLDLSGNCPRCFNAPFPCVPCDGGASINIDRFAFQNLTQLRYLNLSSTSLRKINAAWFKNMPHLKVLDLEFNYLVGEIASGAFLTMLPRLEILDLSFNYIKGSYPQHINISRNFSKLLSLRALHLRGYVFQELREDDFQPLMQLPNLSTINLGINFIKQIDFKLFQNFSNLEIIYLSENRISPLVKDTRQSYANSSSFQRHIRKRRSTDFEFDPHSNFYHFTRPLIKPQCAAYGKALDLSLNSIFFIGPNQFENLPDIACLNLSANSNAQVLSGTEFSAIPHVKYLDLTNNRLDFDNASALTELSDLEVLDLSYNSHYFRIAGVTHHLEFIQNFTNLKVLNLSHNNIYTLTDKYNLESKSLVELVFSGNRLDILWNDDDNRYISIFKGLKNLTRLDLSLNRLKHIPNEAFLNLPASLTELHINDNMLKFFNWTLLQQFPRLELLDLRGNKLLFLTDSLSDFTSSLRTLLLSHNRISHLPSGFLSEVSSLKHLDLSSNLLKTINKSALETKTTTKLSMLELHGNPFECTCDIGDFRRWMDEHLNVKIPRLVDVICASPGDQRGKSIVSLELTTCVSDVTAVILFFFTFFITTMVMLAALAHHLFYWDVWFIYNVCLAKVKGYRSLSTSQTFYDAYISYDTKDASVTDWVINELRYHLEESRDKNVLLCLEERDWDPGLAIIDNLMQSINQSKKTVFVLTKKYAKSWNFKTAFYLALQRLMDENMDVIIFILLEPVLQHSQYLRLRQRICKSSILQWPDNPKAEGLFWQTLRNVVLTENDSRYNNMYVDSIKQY
# Procedure: Experiments on the agonistic activity of TLR7 and TLR8 by the compounds in vitro
# as §1, §2
# 20 uL cell culture supernatant was taken, according to the QUANTI-Blue instructions, the reporter gene SEAP in the supernatant was detected, and the OD650 signal value was read with a microplate reader to calculate the agonist activity of the compound on the hTLR7 and hTLR8.
# as §3
SMILES,CC50 at 1 day [1] [nM],EC50 (hTLR8) [nM]
"CCOCc1nc2c(N)nc3ccccc3c2n1C[C@@H](C)O[P@](=O)(N[C@@H](C)C(=O)OC(C)C)Oc1ccc2ccccc2c1 (single isomer, unassigned) [Example 6B]",> 30000,23
"CCOCc1nc2c(N)nc3ccccc3c2n1C[C@@H](C)O[P@@](=O)(N[C@@H](C)C(=O)OC(C)C)Oc1ccccc1C (single isomer, unassigned) [Example 7A]",> 30000,213
"CCOCc1nc2c(N)nc3ccccc3c2n1C[C@@H](C)O[P@](=O)(N[C@@H](C)C(=O)OC(C)C)Oc1ccccc1C (single isomer, unassigned) [Example 7B]",> 30000,41
"CCOCc1nc2c(N)nc3ccccc3c2n1C[C@@H](C)O[P@@](=O)(N[C@@H](C)C(=O)OC(C)C)Oc1cccc(C)c1 (single isomer, unassigned) [Example 8A]",> 30000,36
"CCOCc1nc2c(N)nc3ccccc3c2n1C[C@@H](C)O[P@](=O)(N[C@@H](C)C(=O)OC(C)C)Oc1cccc(C)c1 (single isomer, unassigned) [Example 8B]",> 30000,65
"CCOCc1nc2c(N)nc3ccccc3c2n1C[C@@H](C)O[P@](=O)(N[C@@H](C)C(=O)OC(C)C)Oc1ccc(C)cc1 (single isomer, unassigned) [Example 9B]",> 30000,71
"CCOCc1nc2c(N)nc3ccccc3c2n1C[C@@H](C)O[P@@](=O)(N[C@@H](C)C(=O)OC(C)C)Oc1ccccc1Cl (single isomer, unassigned) [Example 10A]",> 30000,34
"CCOCc1nc2c(N)nc3ccccc3c2n1C[C@@H](C)O[P@](=O)(N[C@@H](C)C(=O)OC(C)C)Oc1ccccc1Cl (single isomer, unassigned) [Example 10B]",> 30000,13
"CCOCc1nc2c(N)nc3ccccc3c2n1C[C@@H](C)O[P@](=O)(N[C@@H](C)C(=O)OC(C)C)Oc1cccc(Cl)c1 (single isomer, unassigned) [Example 11B]",> 30000,71
"CCOCc1nc2c(N)nc3ccccc3c2n1C[C@@H](C)O[P@](=O)(N[C@@H](C)C(=O)OC(C)C)Oc1ccc(Cl)cc1 (single isomer, unassigned) [Example 12B]",> 30000,49
"CCOCc1nc2c(N)nc3ccccc3c2n1C[C@@H](C)O[P@@](=O)(N[C@H](C)C(=O)OC(C)C)Oc1ccccc1 (single isomer, unassigned) [Example 13A]",> 30000,764
"CCOCc1nc2c(N)nc3ccccc3c2n1C[C@@H](C)O[P@](=O)(N[C@H](C)C(=O)OC(C)C)Oc1ccccc1 (single isomer, unassigned) [Example 13B]",> 30000,1850
"CCOCc1nc2c(N)nc3ccccc3c2n1C[C@@H](C)O[P@](=O)(N[C@@H](C)C(=O)OC(C)(C)C)Oc1ccccc1 (single isomer, unassigned) [Example 14B]",> 30000,1290
"CCOCc1nc2c(N)nc3ccccc3c2n1C[C@@H](C)O[P@@](=O)(N[C@@H](C)C(=O)OC)Oc1ccccc1 (single isomer, unassigned) [Example 15A]",> 30000,68
"CCOCc1nc2c(N)nc3ccccc3c2n1C[C@@H](C)O[P@](=O)(N[C@@H](C)C(=O)OC)Oc1ccccc1 (single isomer, unassigned) [Example 15B]",> 30000,48
"CCOCc1nc2c(N)nc3ccccc3c2n1C[C@@H](C)O[P@](=O)(N[C@@H](C)C(=O)OCc1ccccc1)Oc1ccccc1 (single isomer, unassigned) [Example 16B]",> 30000,11.5
"CCOCc1nc2c(N)nc3ccccc3c2n1C[C@@H](C)O[P@](=O)(N[C@@H](C)C(=O)OC(C)(C)C)Oc1ccc(C)cc1 (single isomer, unassigned) [Example 17B]",> 30000,2920
"CCOCc1nc2c(N)nc3ccccc3c2n1C[C@@H](C)O[P@](=O)(N[C@@H](C)C(=O)OC(C)(C)C)Oc1ccc(OC)cc1 (single isomer, unassigned) [Example 18B]",> 30000,2450
"CCOCc1nc2c(N)nc3ccccc3c2n1C[C@@H](C)O[P@](=O)(N[C@@H](C)C(=O)OC(C)(C)C)Oc1ccc(Cl)cc1 (single isomer, unassigned) [Example 19B]",> 30000,2540
"CCOCc1nc2c(N)nc3ccccc3c2n1C[C@@H](C)OP(=O)(N[C@@H](C)C(F)(F)F)Oc1ccccc1 (single isomer, unassigned) [Example 24A]",–,> 30000
CCOCc1nc2c(N)nc3ccccc3c2n1C[C@@H](C)OP(=O)(N[C@H](C(=O)OC(C)(C)C)C(C)C)Oc1ccc(Cl)cc1 (stereo partly shown) [Example 22],–,1820
"CCOCc1nc2c(N)nc3ccccc3c2n1C[C@@H](C)O[P@@](=O)(N[C@@H](C)C(C)C)Oc1ccc(Cl)cc1 [Example 23A, (R)-1-(4-amino-2-(ethoxymethyl)-1H-imidazo [4,5-c]quinolin-1-yl) propan-2-yl (4-chlorophenyl) (S)—((S)-3-methylbutan-2-yl) phosphoramide]",–,> 30000
"CCOCc1nc2c(N)nc3ccccc3c2n1C[C@@H](C)O[P@](=O)(N[C@@H](C)C(C)C)Oc1ccc(Cl)cc1 [Example 23B, (R)-1-(4-amino-2-(ethoxymethyl)-1H-imidazo [4,5-c]quinolin-1-yl) propan-2-yl (4-chlorophenyl) (R)—((S)-3-methylbutan-2-yl) phosphoramide]",–,18000
"CCOCc1nc2c(N)nc3ccccc3c2n1C[C@@H](C)O[P@](=O)(N[C@@H](C)C(F)(F)F)Oc1ccc(Cl)cc1 [Example 24B, (R)-1-(4-amino-2-(ethoxymethyl)-1H-imidazo [4,5-c]quinolin-1-yl) propan-2-yl (4-chlorophenyl) (R)—((S)-1,1,1-trifluoropropan-2-yl) phosphoramide]",–,> 30000
"CCOCc1nc2c(N)nc3ccccc3c2n1C[C@@H](C)O[P@@](=O)(N[C@@H](C)COC)Oc1ccc(Cl)cc1 [Example 25A, (R)-1-(4-amino-2-(ethoxymethyl)-1H-imidazo [4,5-c]quinolin-1-yl) propan-2-yl (4-chlorophenyl) (S)—((S)-1-methoxypropan-2-yl) phosphoramide]",–,> 30000
"CCOCc1nc2c(N)nc3ccccc3c2n1C[C@@H](C)O[P@](=O)(N[C@@H](C)COC)Oc1ccc(Cl)cc1 [Example 25B, (R)-1-(4-amino-2-(ethoxymethyl)-1H-imidazo [4,5-c]quinolin-1-yl) propan-2-yl (4-chlorophenyl) (R)—((S)-1-methoxypropan-2-yl) Phosphoramide]",–,> 30000
"CCOCc1nc2c(N)nc3ccccc3c2n1CC(C)(C)O [Example R848, reference compound]",> 10000,–
